The values that follow come from patent publication US20030109568A1 (CHEIL JEDANG Corporation, priority 2001, published 2003).

SMILES strings stand for the structures.

The target in experiment [1] is T1, cyclooxygenase-2 (Mus musculus, UniProt Q05769).
T1 construct: Peritoneal fluid suspended with macrophages was extracted from a mouse peritoneal cavity; endogenous in cells; host or cells: primary mouse peritoneal macrophages, pretreated with 500 µM aspirin and stimulated with 10 µg/ml LPS
T1 sequence (Q05769 18-604): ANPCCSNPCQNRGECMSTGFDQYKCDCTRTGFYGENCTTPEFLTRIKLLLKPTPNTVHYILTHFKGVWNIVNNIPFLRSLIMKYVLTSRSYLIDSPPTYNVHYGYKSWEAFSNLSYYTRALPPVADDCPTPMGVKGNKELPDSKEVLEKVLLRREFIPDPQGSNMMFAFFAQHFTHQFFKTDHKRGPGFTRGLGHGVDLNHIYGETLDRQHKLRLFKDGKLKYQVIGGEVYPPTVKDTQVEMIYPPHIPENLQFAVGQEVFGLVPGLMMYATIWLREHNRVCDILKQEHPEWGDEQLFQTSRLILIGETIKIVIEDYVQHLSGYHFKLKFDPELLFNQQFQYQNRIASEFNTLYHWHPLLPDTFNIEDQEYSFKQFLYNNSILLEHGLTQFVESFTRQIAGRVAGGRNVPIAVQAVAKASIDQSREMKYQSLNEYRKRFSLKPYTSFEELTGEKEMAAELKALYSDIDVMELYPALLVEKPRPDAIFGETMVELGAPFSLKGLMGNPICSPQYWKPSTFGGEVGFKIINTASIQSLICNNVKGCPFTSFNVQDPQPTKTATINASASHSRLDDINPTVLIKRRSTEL
Description: Cyclooxygenase-2 inhibition in aspirin-treated, LPS-stimulated mouse peritoneal macrophages (PGE2 ELISA). It counts as cell-based. To be noted: for Inhibitory effects of cyclooxygenase (COX), COX-2: LPS-stimulated mouse peritoneal macrophages. As to the method: Second, the cyclooxygenase-2 was examined through the following procedure.
Peritoneal fluid suspended with macrophages was extracted from a mouse peritoneal cavity and centrifuged at 4° C., 1,000 rpm for 2 minutes. Then, the supernatant was removed, suspended using incomplete RPMI medium [PC/SM (penicilin/streptomycin)] and again centrifuged under the same condition. […] Then, the cell number was calculated with the hemocytometer and adjusted to reach 1×10^6 cells/ml of cell concentration in the final cell suspension. The resulting suspension was treated with aspirin, adjusting 500 μM of final concentration and transderred into each well of 96-well plate in 100 μl respectively. Again, it was left at 37° C. in 5% CO2 in the incubator for about 2 hours in order to attach macrophages. […] The resulting cell was cultivated in the incubator at 37° C. in 5% CO2 for about 12˜16 hours. Then, arachidonic acid was added, adjusting to 10 μM of a final concentration and incubated at 37° C. for more 10 minutes and the supernatant of the reacted solution (˜180 μl) was recovered to finish the reaction.

The target in experiment [2] is T2, cyclooxygenase-1 (Mus musculus, UniProt P22437).
T2 construct: endogenous in cells; host or cells: primary mouse peritoneal macrophages (unstimulated)
T2 sequence (P22437 27-602): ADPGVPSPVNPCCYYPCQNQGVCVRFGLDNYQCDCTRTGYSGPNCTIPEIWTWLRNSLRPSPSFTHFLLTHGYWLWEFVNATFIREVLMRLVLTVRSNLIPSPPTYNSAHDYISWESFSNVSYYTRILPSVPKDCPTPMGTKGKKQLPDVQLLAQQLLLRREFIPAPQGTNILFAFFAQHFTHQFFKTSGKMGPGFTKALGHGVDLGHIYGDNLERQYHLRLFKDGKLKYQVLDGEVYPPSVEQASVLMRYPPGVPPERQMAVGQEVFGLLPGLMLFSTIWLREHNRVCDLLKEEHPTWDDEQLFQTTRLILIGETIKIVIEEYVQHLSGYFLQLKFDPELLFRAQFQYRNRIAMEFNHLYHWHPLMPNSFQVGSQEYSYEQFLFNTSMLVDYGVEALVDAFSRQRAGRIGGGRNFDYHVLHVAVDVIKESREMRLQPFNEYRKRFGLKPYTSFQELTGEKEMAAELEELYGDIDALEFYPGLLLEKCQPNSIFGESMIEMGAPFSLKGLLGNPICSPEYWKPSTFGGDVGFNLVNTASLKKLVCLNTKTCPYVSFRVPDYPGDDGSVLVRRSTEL
Description: Cyclooxygenase-1 inhibition in mouse peritoneal macrophages (PGE2 ELISA). To be noted: for Inhibitory effects of cyclooxygenase (COX), COX-1: mouse peritoneal macrophages. In kind it is cell-based. As to the method: First of all, the cyclooxygenase-1 was examined through the following procedure.
Peritoneal fluid in which macrophages were suspended was extracted from a mouse peritoneal cavity and centrifuged at 4° C., 1,000 rpm for 2 minutes. Then, the supernatant was removed, suspended with 20 ml of incomplete RPMI medium [PC/SM (penicilin/streptomycin)] and again centrifuged under the same condition. […] Then, the cell number was calculated with the hemocytometer and adjusted to reach 1×10^6 cells/ml of cell concentration in the final cell suspension. 100 μl of the resulting suspension was transferred into each well of 96-well plate and left at 37° C. in 5% CO2 with the incubator for about 2 hours in order to attach macrophages. […] The resulting cell was cultivated in the incubator at 37° C. in 5% CO2 for about 12˜16 hours. Then, arachidonic acid was added, adjusting to 10 μM of a final concentration and incubated at 37° C. for more 10 minutes and the supernatant of the reacted solution (˜180 μl) was recovered to finish the reaction.
(In general: In an ELISA, binding on a coated surface is turned into a signal by an enzyme label.)

The mark [3] stands for this setting: compared with comparative substance.

On to `O=[N+]([O-])c1ccc2c(ccn2Cc2ccccc2)c1` [Example 2, 1-benzyl-5-nitro-1H-indole], for which the “Inhibitory effects of cyclooxygenase (COX), COX-2” value (from here on “Inhibitory effects … COX-2”) in experiment [1] (30 nM) amounted to 15.7 % inhibition; in experiment [1] (100 nM) it was 20.7 % inhibition; in experiment [1] (300 nM), 22.0 % inhibition. In addition, the figures for the “Inhibitory effects of cyclooxygenase (COX), COX-1” value (“Inhibitory effects … COX-1” for short) in experiment [2] (3 μM), in experiment [2] (10 μM) and in experiment [2] (30 μM) were 56.7 % inhibition, 68.7 % inhibition and 80.4 % inhibition, respectively.
With `CS(=O)(=O)Nc1ccc2c(ccn2Cc2ccccc2)c1` [Example 7, N-(1-benzyl-1H-indole-5-yl)-methanesulfonamide], the “Inhibitory effects … COX-2” value in experiment [1] (30 nM) came to 59.8 % inhibition; in experiment [1] (100 nM) it was 70.6 % inhibition; in experiment [1] (300 nM), 76.8 % inhibition. For the same compound, the “selectivity of cyclooxygenase-2 (in words)” value in experiment [1] (COX-2 versus COX-1) is recorded as “better than any other substances”. Moreover, the “inhibition effect against cyclooxygenase-2 (in words)” value in experiment [1] (setting [3]) is on record as “more excellent than a comparative substance”. The entries for the “Inhibitory effects … COX-1” value in experiment [2] (3 μM), in experiment [2] (10 μM) and in experiment [2] (30 μM) were 30.0 % inhibition, 44.1 % inhibition and 56.4 % inhibition, respectively. Besides, in experiment [2] (setting [3]), the “inhibition effect against cyclooxygenase-1 (in words)” value is “in much lower level than a comparative substance”.
Turning to `Nc1ccc2c(ccn2C(=O)c2ccccc2)c1` [Example 6, 1-benzoyl-5-amino-1H-indole], the “Inhibitory effects … COX-2” value in experiment [1] (30 nM) is 33.4 % inhibition; in experiment [1] (100 nM), 46.6 % inhibition; in experiment [1] (300 nM), 54.9 % inhibition. Moreover, the “Inhibitory effects … COX-1” value was found to be 52.3 % inhibition in experiment [2] (3 μM), 57.3 % inhibition in experiment [2] (10 μM) and 64.8 % inhibition in experiment [2] (30 μM).
Turning to `COc1ccc(Cn2ccc3cc([N+](=O)[O-])ccc32)cc1` [Example 4, 1-(4-methoxy-benzyl)-5-nitro-1H-indole], the “Inhibitory effects … COX-2” value in experiment [1] (30 nM) is given as 55.4 % inhibition; in experiment [1] (100 nM) it was 69.9 % inhibition; in experiment [1] (300 nM), 81.5 % inhibition. Further, the figures for the “Inhibitory effects … COX-1” value in experiment [2] (3 μM), in experiment [2] (10 μM) and in experiment [2] (30 μM) were 60.3 % inhibition, 71.1 % inhibition and 80.1 % inhibition, respectively.
Turning to `CS(=O)(=O)Nc1ccc2c(ccn2C(=O)c2ccccc2)c1` [Example 9, N-(1-benzoyl-1H-indole-5-yl)-methanesulfonamide], the results for the “Inhibitory effects … COX-2” value in experiment [1] (30 nM), in experiment [1] (100 nM) and in experiment [1] (300 nM) were 20.4 % inhibition, 25.5 % inhibition and 30.1 % inhibition, respectively. In addition, the “Inhibitory effects … COX-1” value in experiment [2] (3 μM) was found to be 22.8 % inhibition; in experiment [2] (10 μM), 31.1 % inhibition; in experiment [2] (30 μM) it was 42.1 % inhibition.
For `O=C(c1ccccc1)n1ccc2cc([N+](=O)[O-])ccc21` [Example 1, 1-benzoyl-5-nitro-1H-indole], the “Inhibitory effects … COX-2” value in experiment [1] (30 nM), in experiment [1] (100 nM) and in experiment [1] (300 nM) was “˜0 % inhibition” in each case. For the same compound, the “Inhibitory effects … COX-1” value is given as 33.2 % inhibition in experiment [2] (3 μM), 40.7 % inhibition in experiment [2] (10 μM) and 45.8 % inhibition in experiment [2] (30 μM).
As to `CC(C)c1ccc(Cn2ccc3cc([N+](=O)[O-])ccc32)cc1` [Example 5, 1-(4-isopropyl-benzyl)-5-nitro-1H-indole], the “Inhibitory effects … COX-2” value worked out at 51.2 % inhibition in experiment [1] (30 nM), 55.4 % inhibition in experiment [1] (100 nM) and 61.4 % inhibition in experiment [1] (300 nM). For the same compound, the “Inhibitory effects … COX-1” value in experiment [2] (3 μM) worked out at 39.9 % inhibition; in experiment [2] (10 μM), 47.1 % inhibition; in experiment [2] (30 μM), 54.3 % inhibition.
With `O=[N+]([O-])c1ccc2c(ccn2Cc2ccc(F)cc2)c1` [Example 3, 1-(4-fluoro-benzyl)-5-nitro-1H-indole], the entries for the “Inhibitory effects … COX-2” value in experiment [1] (30 nM), in experiment [1] (100 nM) and in experiment [1] (300 nM) were 50.1 % inhibition, 58.8 % inhibition and 70.2 % inhibition, respectively. In addition, the “Inhibitory effects … COX-1” value in experiment [2] (3 μM) was determined as 60.4 % inhibition; in experiment [2] (10 μM), 64.4 % inhibition; in experiment [2] (30 μM), 74.6 % inhibition.
For `CS(=O)(=O)Nc1ccc2c(ccn2Cc2ccc(F)cc2)c1` [Example 8, N-[1-(4-fluoro-benzyl)-1H-indole-5-yl]-methansulfonamide], the “Inhibitory effects … COX-2” value in experiment [1] (30 nM) worked out at 22.1 % inhibition; in experiment [1] (100 nM), 28.6 % inhibition; in experiment [1] (300 nM) it was 29.6 % inhibition. Moreover, the “Inhibitory effects … COX-1” value in experiment [2] (3 μM) turned out to be 7.6 % inhibition; in experiment [2] (10 μM), 32.3 % inhibition; in experiment [2] (30 μM) it was 53.9 % inhibition.
